For series [1], the target named is T1, Poly [ADP-ribose] polymerase 1 (Homo sapiens, UniProt P09874). In words: Inhibition of PARP1 (unknown origin) incubated for 60 mins by absorbance based analysis.
Series [2] deals with T1, Poly [ADP-ribose] polymerase 1. In words: Inhibition of PARP1 (unknown origin) incubated for 60 mins by ELISA assay. On the technique in general: An ELISA detects its analyte on a solid surface through an enzyme-linked reagent.
For series [3] the target is unchanged. In words: Inhibition of PARP1 (unknown origin).
The target is the same in series [4]. In words: Inhibition of PARP1 CD (unknown origin) by colorimetric assay.
The target is the same in series [5]. Kind of series: Inhibition of PARP1 (unknown origin) using Streptavidin-HRP as substrate incubated for 1 hr by absorbance based analysis.
Series [6] is described as follows: Lipophilicity, logD of compound at pH 7.4. The class given is physicochemical. Particulars: buffer.
Series [7] in a line: Dissociation constant, pKa of the compound under acidic condition. The format is physicochemical.
A short description of series [8]: Solubility of the compound. The class given is physicochemical.
Series [9] in a line: Lipophilicity, logP of compound. The format is physicochemical. Particulars: octanol/water.
Series [10] is described as follows: Dissociation constant, pKa of the compound under basic condition. The class given is physicochemical.
Series [11] deals with Voltage-gated inwardly rectifying potassium channel KCNH2 (Homo sapiens, UniProt Q12809). In words: Inhibition of hERG. The class given is toxicity.

Molecules are shown by their SMILES. Values after ≈ are worked out from the molar mass of the structure shown.

T1 sequence (P09874 whole entry): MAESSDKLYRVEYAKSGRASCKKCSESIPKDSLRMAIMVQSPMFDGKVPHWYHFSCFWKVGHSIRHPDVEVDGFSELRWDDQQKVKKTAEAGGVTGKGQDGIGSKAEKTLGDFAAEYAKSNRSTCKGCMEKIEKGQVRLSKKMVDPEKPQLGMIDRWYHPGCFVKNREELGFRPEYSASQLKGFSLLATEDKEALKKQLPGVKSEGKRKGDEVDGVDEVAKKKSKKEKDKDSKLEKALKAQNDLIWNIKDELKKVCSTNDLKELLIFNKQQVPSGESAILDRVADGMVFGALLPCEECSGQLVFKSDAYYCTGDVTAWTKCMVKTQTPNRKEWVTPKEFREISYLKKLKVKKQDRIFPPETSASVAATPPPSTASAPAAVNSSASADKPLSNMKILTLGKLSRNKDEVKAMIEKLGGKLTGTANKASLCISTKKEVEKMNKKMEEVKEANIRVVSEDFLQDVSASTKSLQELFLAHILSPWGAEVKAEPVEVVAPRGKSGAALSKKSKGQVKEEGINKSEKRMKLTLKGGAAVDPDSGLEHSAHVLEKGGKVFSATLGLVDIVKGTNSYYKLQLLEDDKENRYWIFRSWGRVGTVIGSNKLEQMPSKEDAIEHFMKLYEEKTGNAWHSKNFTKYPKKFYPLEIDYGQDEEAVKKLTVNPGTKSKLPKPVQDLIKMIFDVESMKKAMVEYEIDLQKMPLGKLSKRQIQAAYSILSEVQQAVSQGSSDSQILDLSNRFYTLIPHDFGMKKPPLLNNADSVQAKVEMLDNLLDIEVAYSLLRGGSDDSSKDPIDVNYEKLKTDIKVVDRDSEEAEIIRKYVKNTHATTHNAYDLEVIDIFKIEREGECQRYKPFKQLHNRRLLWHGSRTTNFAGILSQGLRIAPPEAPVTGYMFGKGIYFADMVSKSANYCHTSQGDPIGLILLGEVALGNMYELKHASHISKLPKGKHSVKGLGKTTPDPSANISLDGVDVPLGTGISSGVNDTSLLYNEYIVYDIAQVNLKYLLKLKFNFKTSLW
Chain of Voltage-gated inwardly rectifying potassium channel KCNH2 (Q12809 whole entry): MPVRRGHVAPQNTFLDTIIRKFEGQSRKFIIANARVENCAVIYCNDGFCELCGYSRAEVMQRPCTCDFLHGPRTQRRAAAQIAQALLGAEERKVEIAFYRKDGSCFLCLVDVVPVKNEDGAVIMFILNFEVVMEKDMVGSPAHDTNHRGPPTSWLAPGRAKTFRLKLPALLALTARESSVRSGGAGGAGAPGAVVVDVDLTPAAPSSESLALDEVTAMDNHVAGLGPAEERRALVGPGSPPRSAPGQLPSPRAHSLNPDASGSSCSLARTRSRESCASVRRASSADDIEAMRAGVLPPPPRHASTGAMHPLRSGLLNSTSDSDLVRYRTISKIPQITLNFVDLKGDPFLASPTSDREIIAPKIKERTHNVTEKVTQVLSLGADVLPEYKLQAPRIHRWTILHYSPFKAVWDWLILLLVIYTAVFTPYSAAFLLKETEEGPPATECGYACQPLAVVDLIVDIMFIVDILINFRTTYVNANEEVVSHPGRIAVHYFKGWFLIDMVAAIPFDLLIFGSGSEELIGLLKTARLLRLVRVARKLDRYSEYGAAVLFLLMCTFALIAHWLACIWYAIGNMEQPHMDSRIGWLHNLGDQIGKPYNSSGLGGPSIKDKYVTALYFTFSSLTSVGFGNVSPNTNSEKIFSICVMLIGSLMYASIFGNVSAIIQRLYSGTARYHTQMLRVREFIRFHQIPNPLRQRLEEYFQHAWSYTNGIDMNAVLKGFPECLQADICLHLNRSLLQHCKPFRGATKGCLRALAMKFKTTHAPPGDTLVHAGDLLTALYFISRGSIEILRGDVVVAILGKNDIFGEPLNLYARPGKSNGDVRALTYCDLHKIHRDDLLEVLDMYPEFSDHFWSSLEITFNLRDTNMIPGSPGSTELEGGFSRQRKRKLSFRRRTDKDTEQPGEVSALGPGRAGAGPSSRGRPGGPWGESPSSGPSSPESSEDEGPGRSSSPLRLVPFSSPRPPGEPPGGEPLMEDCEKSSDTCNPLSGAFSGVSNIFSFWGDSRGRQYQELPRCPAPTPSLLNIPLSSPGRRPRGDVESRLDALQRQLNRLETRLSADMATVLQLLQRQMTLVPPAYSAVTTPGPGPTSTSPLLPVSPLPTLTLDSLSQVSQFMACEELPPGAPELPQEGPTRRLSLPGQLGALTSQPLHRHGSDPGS

On to `C[N+]1(C)CCc2cc(O)c(O)cc2[C@H]1Cc1ccc(O)c(O)c1`, for which, in series [1], the IC50 (in general, the concentration needed to halve the response being measured) worked out at 1600 nM.
Regarding `O=C(CSc1nc2sc3c(c2c(=O)[nH]1)CCC3)N(CCO)CCO`, the IC50 in [2] amounted to 560 nM.
Turning to `O=C1CCc2cc(-c3ccccc3F)ccc2C2(CCCCC2)N1`, in [3], 19 nM corresponded to half-maximal inhibition (IC50).
As to `CC1=C(NN)SC(NNS(=O)(=O)c2ccc3[nH]c(=O)c(=O)[nH]c3c2)N1C(=O)c1ccccc1` (configuration not stated), the IC50 in [4] stood at 2.31 nM.
The same measure, in the same setting: as for `CC(=O)C1=C(C)N(C(=O)c2ccccc2)C(NNS(=O)(=O)c2ccc3[nH]c(=O)c(=O)[nH]c3c2)S1` (configuration not stated), the figure is 8.25 nM.
Regarding `O=C(NN1CCCC1)c1cc(Cc2n[nH]c(=O)c3cccnc23)ccc1F`, half-maximal inhibition in series [5] (IC50) required 36.7 nM.
`C[N+]12CCc3cc(O)c(O)cc3C1Cc1cc3c(cc12)OCO3` (configuration not stated): the half-maximal inhibitory concentration (IC50) in series [1] came to 960 nM.
In turn, `Cc1cc(O)nn1S(=O)(=O)c1ccc2[nH]c(=O)c(=O)[nH]c2c1` displayed an IC50 in series [4] of 8.73 nM.
On to `CCN(c1ccccc1)S(=O)(=O)c1ccc(NC(=O)C2CC(=O)c3cc(C)c(C)cc3O2)cc1` (configuration not stated), for which, in series [2], half-maximal inhibition (IC50) was put at 63000 nM.
In the case of `CC1=CSC(NNS(=O)(=O)c2ccc3[nH]c(=O)c(=O)[nH]c3c2)N1C(=O)c1ccccc1` (configuration not stated), the IC50 in series [4] is 6.35 nM.
For the compound `Oc1ccc(C2CNCc3c(O)cccc32)cc1O` (racemic), the 50% inhibitory concentration (IC50) in series [1] was 240 nM. This lies in the sub-micromolar range.
Take `NC(=O)c1cccc2cn(-c3ccc([C@@H]4CCCNC4)cc3)nc12` [NIRAPARIB]: the logD (commonly the decadic logarithm of the distribution of all forms, ionised or not, between an organic phase and buffer at a given pH) in [6] is -0.11. Besides, the pKa (as a rule, the negative logarithm of the acid dissociation constant) in series [7] was determined as 14; in [10], 10.1. Besides, in series [8], the concentration in solution (solubility) was 700 µg/mL (≈ 2180 µM). In addition, the logP (in general, a log measure of how a compound divides between an organic and an aqueous phase) in series [9] was 2.47. In [11], this compound yielded a half-inhibitory concentration (IC50) of 10000 nM.
In [6], `O=C(c1cc(Cc2n[nH]c(=O)c3ccccc23)ccc1F)N1CCN(C(=O)C2CC2)CC1` [OLAPARIB] had a logD of 1.96. The pKa in series [7] came out at 9.96; in series [10] it was 0.9. Besides, in series [9], the log partition coefficient (logP) is 1.96.
In [6], `CNCc1ccc(-c2[nH]c3cc(F)cc4c3c2CCNC4=O)cc1` [RUCAPARIB] showed a pH-dependent lipophilicity (logD) of 0.55. In addition, the pKa in series [7] was 13.2; in series [10], 9.32. In addition, the solubility (in general, the dissolved amount per volume that the medium holds) in [8] worked out at 1000 µg/mL (≈ 3090 µM). In [9], this compound returned a logP of 2.45. For the same compound, in series [11], the midpoint of inhibition, the IC50, lay at 23000 nM.
With `Cn1ncnc1[C@H]1c2n[nH]c(=O)c3cc(F)cc(c23)N[C@@H]1c1ccc(F)cc1` [TALAZOPARIB], the logD in series [6] stood at 2.11. For the same compound, the pKa in [7] came to 9.48; in [10], 1.66. This compound came in with a solubility in series [8] of 17 µg/mL (≈ 44.7 µM). Moreover, the logP in series [9] is 2.11.

The record behind these values is ChEMBL document CHEMBL5360556, “An overview of compound properties, multiparameter optimization, and computational drug design methods for PARP-1 inhibitor drugs” (Eur J Med Chem, 2023).
